For test [1], the system named is primary neurons of the rat cerebellum. The experiment in a line: NMDA-mediated calcium influx into primary neurons after chronic IL-6 treatment. It counts as cell-based. As for the experimental part: Cultures of primary neurons were obtained from the cerebella of rats 6 to 8 days old as described by B. Engelsen and R. Bjerkvig [in R. I. Freshney (Editor) Culture of Animal Cells, 2nd Edition, Alan R. Liss, Inc. New York 1987, 277-279]. After removal of the tissue, single cells were obtained using papain and were seeded out in a density of 200 00 cells per well in microtitre plates (96 wells) coated with poly-D-lysine. The cells were cultivated in a growth medium consisting of DMEM/F12, 10% heat-inactivated horse serum. 25 mM KCl, 30 mM glucose, 2 mM glutamine. In order to minimize the number of glial cells, 5-fluoro-2′-deoxyuridine (20 μg/ml) was added on the first and fourth day in culture. The cultures obtained in this way consisted of more than 95% neurons.
Human recombinant interluekin-6 (IL-6) was dissolved in physiological salt solution (Hank's balanced salt solution) and added to neuron cultures on days, 1, 4, 7 and 11 after the start of culturing (final) concentration 5 ng/ml). […]
12 days after the start of culturing, the N-methyl-D-asparate (NMDA)-induced changes in the intracellular calcium level were measured using a fluorescence plate reader (Ascent Fluoroscan). […] The cells were stimulated by adding NMDA (final concentration 200 μM) in the presence of glycine (final concentration 5 μM), and the fluroescence was measured at 15-second intervals over a period of one minute (excitation 485 nm. emission 530 nm). Intracellular calcium concentrations were calculated by the formula [Ca^2]i=Kd.
The arithmetic means was formed from the intracellular calcium concentrations found at all four times of measurement, and the percentage change from the unstimulated controls (basa) calcium concentration) was calculated.
Inhibition of the potentiation, induced chronic IL-6 administration, of the NMDA-mediated calcium influx into primary neurons of the rat cerebellum by galiella lactone. […] The average calcium concentration during the one-minute measurement period was calculated and expressed as a per cent of the basal intracellular calcium concentration. […]

Another test addresses T1, activated Stat3 dimers (Homo sapiens, UniProt P40763).
T1 construct: Probe used: m67SIE, induction time 20 minutes: cell line: HepG2; endogenous in cells; host or cells: HepG2 (cell extract)
The experiment in a line: Electrophoretic mobility shift assay: DNA binding of activated Stat3 dimers to m67SIE probe. The conditions noted are these: 16 ng/ml (82 nM), HepG2. The text has this: The DNA binding of activated Stat3 dimers to their binding sites in the promoters of the target genes is the basic requirement for transcriptional activation of these genes. At the same time, this step is specific for Stat3, i.e. inhibition of this step would result in specific inhibition of IL-6-induced and Stat3-mediated expression of the target genes without simultaneously affecting other signal cascades. The effect of the various compounds on the DNA binding ability of the phosphorylated and thus activated Stat3 dimers was analysed by carrying out electrophoretic mobility shift assays (EMSAs, gel shift assays).
The procedure was as described in Nature, 1993, 362: 79-83 and Mol. Cell Biol, 1998, 18: 2108-17. The DNA probe used was the ^32P-labelled, double-stranded oligonucleotide with the m67SIE recognition sequence (S2) (wild-type) (cf. EMBO J. 1995, 14: 1421-9)
It was possible to show with control mixtures in which the induced control was preincubated with phospho-Stat3 (tyrosine 705)-specific antibodies that it is Stat3 phosphorylated on the tyrosine 705 residue which binds to the m67SIE probe (see FIG. 6).
Effect of galiella lactone on the binding of activated Stat3 dimers to their DNA recognition sequence. Probe used: m67SIE, induction time 20 minutes: cell line: HepG2.

The test system of another test is HT 29. In words: Growth inhibition test (MTT), cytotoxic properties on tumour cell lines. The following applies: Homo sapiens, HT-29, 144 h; HAT29, MTT, day 6; read-out: cytotoxic effect IC50. It counts as cell-based. As for the experimental part:
(§1) The human colon cell lines SW 480 and HT 29 (ATCC Nos. CCL 228 and HBT-38), the mouse melanoma cell line B16F10 and the human prostate tumour cell lines LNCaP-FGC, PC-3 and DU 145 (ATCC No. CRL-10995, CRL-1435, HTB-81) were grown in RPMI 1640 medium with addition of 10% FCS in Roux dishes. This was followed by trypsinization and taking up in RPMI plus 10% FCS to a cell count of 50 000 cell/ml. 100 μl of cell suspension/well were put in a 96-microwell plate and incubated in a CO2 incubator at 37° C. for 1 day. A further 100 μl of RPMI medium and 1 μl of DMSO with galiella lactone were then added. The growth was monitored after day 6. For this purpose, 40 μl of MTT solution (3-(4,5-dimethylthiazol-2-yl)-2,5-diphenyltetrazolium bromide) with an initial concentration of 5 mg/ml of H2O were added to each microwell. Incubation took place in a CO2 incubator at 37° C. for 5 hours. The medium was then separated off, and 100 μl of i-propanol/well were added. After shaking with 100 μl of H2 O for 30 min, the extinction at 540 nm was measured with a Titertek Multiscan MCC/340 (flow).
(§2) The cytotoxic effect is indicated in the table as IC50 (galiella lactone concentration in μM) for the various tumour cell lines: […]

The next test has as its system PC-3. The test is described as above. It counts as cell-based. The following applies: Homo sapiens, 144 h; PC-3, MTT, day 6; read-out: cytotoxic effect IC50. As for the experimental part:
as §1, §2

The next test has as its system LNCaP-FGC. The description is as above. Type of test: cell-based. The following applies: Homo sapiens, 144 h, day 6, read-out: cytotoxic effect IC50. As for the experimental part:
as §1, §2

A further test concerns DU 145. The test is described as above. It counts as cell-based. The conditions noted are these: Homo sapiens, DU-145, 144 h; DU145, MTT, day 6; read-out: cytotoxic effect IC50. The method, then: as §1, §2
Another test has as its system SW 480. The description is as above. The following applies: Homo sapiens, 144 h; SW480, MTT, day 6; read-out: cytotoxic effect IC50. Type of test: cell-based. The method, then:
as §1, §2

The test system of a further test is B16F10. The test is described as above. Type of test: cell-based. The conditions noted are these: Mus musculus, B16-F10, 144 h, day 6, read-out: cytotoxic effect IC50. As for the experimental part: as §1, §2

Results on one molecule are retold here after US6512007B1, “Use of galiella lactone” (Bayer Aktiengesellschaft, priority 2000, dated 2003).

pIC50: −log10 of the molar value.

T1 sequence (P40763 2-770 limits assumed): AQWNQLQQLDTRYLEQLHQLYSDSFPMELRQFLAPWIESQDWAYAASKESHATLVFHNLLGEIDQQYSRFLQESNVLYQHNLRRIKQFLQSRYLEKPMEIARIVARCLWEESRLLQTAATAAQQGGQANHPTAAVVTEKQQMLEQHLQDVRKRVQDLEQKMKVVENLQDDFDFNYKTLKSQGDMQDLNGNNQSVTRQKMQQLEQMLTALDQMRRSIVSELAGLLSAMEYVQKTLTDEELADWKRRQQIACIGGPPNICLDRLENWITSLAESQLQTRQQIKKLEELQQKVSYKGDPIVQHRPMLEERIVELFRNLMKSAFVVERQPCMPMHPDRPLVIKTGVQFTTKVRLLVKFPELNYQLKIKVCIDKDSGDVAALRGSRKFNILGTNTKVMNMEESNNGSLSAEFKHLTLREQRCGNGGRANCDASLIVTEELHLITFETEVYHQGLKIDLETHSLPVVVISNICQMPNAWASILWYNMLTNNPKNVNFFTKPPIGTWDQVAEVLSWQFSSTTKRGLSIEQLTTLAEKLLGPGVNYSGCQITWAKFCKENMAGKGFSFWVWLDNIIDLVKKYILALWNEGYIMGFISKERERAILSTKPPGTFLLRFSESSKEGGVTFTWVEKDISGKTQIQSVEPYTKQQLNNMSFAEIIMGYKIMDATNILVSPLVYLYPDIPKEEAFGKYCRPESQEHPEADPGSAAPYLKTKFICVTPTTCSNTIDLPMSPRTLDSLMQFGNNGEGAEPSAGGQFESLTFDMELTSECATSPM

On to `C[C@H]1C=C2C(=O)O[C@H]3CC[C@@H](C1)[C@@]23O` [galiella lactone], for which, in test [1] (1 μM before each IL-6 addition (5 ng/ml), NMDA 200 μM), the “IL-6-induced enhancement of the NMDA-mediated calcium influx” value is “completely prevented”. In addition, the “NMDA-induced increase in average intracellular calcium concentration” value in test [1] (chronic administration 1 μM, NMDA 200 μM, without IL-6) is listed as “somewhat reduced”. In test [1] (chronic treatment, 1 μM, no NMDA), the “effect on the basal calcium level” value was “no effect”. Moreover, on activated Stat3 dimers, the “binding of the activated Stat3 dimers to their recognition sequence” value is on record as “completely inhibits”. Besides, the negative logarithm of the IC50 (pIC50) in the test with HT 29 is 5.30; in the test on PC-3 it was 5.40; with LNCaP-FGC it was 5.70; in the test on DU 145, 5.35; in the test on SW 480, 5.30; with B16F10, 5.52.
